Measurements reported in patent US20230256102A1, “COMPOSITES AND USES THEREOF” (YISSUM RESEARCH DEVELOPMENT COMPANY OF THE HEBREW …, priority 2019, published 2023).
Square brackets hold non-standard residues; d marks the D form. Peptide text beside a SMILES is read from it. * marks the point of attachment. Palmitoyl = CCCCCCCCCCCCCCCC(=O)*

System: MRSA cells
Assay: Mixing leucine-lysine random peptide mixtures and copper ions assay
Type: cell-based, Staphylococcus aureus
Conditions: 400 ppm copper sulfate, 6 hours
Description: Mixing Leucine-Lysine random peptide mixtures and copper ions assay: MRSA cells were grown as described in order to prepare a bacterial suspension with O.D.600 nm of 0.1. […] After mixing by vortex, a 1 mL sample was taken for O.D. measurement and the remaining 1 mL sample was incubated for 6 hours at 37° C., 100 RPM. After this time, the O.D. was re-measured and the percentage growth was calculated according to the equation: […]

Row | Molecule | growth of MRSA lower than the control [%]
1 | O=S(=O)([O-])[O-].[Cu+2] [copper sulfate] | ~15

System: Xanthomonas campestris pv. campestris (Xcc) ATCC 33913
Assay: Minimal inhibitory concentration (MIC) assay
Type: cell-based
Conditions: 24 h, 28° C.
Description: Bacterial strains and growth conditions: The bacterial strains used in this study are detailed in Table 2. Unless stated otherwise, all strains were grown on nutrient agar (NA, Difco) or nutrient broth (NB, Difco), except Pst that was grown on Kings B agar plates and NB. All strains were grown at 28° C. for 48 h. All bacterial cells used in this study were stored in 25% glycerol at −80° C.
Minimal inhibitory concentration (MIC) assay: MIC values were determined by broth microdilution in sterile 96-flat bottom well plates (Corning 3650) as described by Hayouka et al. (2013). Briefly, Xcc cells were grown for 24 h in NB at 28° C., with shaking (180 rpm) and re-suspended in fresh NB to reach an OD600 nm of 0.1 (˜10^8 CFU/ml) that was measured using a Genesys 10 uv spectrophotometer (ThermoSpectronic). One hundred microliter-aliquots of Xcc cells were added to 100 μl of NB medium containing peptides/lipopeptides at various concentrations. Bacterial growth was determined after incubation of 24 h at 28° C. by measurement of the optical density (OD595 nm), using a Tecan infinite Pro Plate reader. […] The highest concentration tested was 200 μg/ml. Each experiment was carried out at least three times, with three replicates per strain/concentration combination in each experiment.

Row | Molecule | MIC value [µg/mL]
2 | CCCCCCCCCCCCCCCC(=O)N[C@@H](Cc1ccccc1)C(=O)N[C@H](CCCCN)C(=O)N[C@H](CCCCN)C(=O)N[C@H](CCCCN)C(=O)N[C@H](CCCCN)C(N)=O [lipopeptide #6, p-Fkkkk] (Palmitoyl-F[dK][dK][dK][dK]-NH2) | 12
3 | CCCCCCCCCCCCCCCC(=O)N[C@@H](Cc1ccccc1)C(=O)N[C@@H](Cc1ccccc1)C(=O)N[C@H](CCCCN)C(=O)N[C@H](CCCCN)C(=O)N[C@H](CCCCN)C(N)=O [lipopeptide #16, p-FFkkk] (Palmitoyl-FF[dK][dK][dK]-NH2) | 50
4 | CCCCCCCCCCCCCCCC(=O)N[C@@H](Cc1ccccc1)C(=O)N[C@H](CCCCN)C(=O)N[C@H](CCCCN)C(=O)N[C@@H](Cc1ccccc1)C(=O)N[C@@H](Cc1ccccc1)C(N)=O [lipopeptide #19, p-FkkFF] (Palmitoyl-F[dK][dK]FF-NH2) | 38

Same assay, conditions: 24 h, 28° C., ND = non-detected at tested concentrations (up to 200 μg/ml)

Row | Molecule | Average MIC [µg/mL]
5 | CCCCCCCCCCCCCCCC(=O)N[C@H](CCCCN)C(=O)N[C@H](CCCCN)C(=O)N[C@H](CCCCN)C(=O)N[C@H](CCCCN)C(=O)N[C@H](CCCCN)C(N)=O [lipopeptide #1, p-kkkkk] (Palmitoyl-[dK][dK][dK][dK][dK]-NH2) | 6
6 | CCCCCCCCCCCCCCCC(=O)N[C@H](CCCCN)C(=O)N[C@H](CCCCN)C(=O)N[C@H](CCCCN)C(=O)N[C@H](CCCCN)C(=O)N[C@@H](Cc1ccccc1)C(N)=O [lipopeptide #2, p-kkkkF] (Palmitoyl-[dK][dK][dK][dK]F-NH2) | 6
7 | CCCCCCCCCCCCCCCC(=O)N[C@H](CCCCN)C(=O)N[C@H](CCCCN)C(=O)N[C@H](CCCCN)C(=O)N[C@@H](Cc1ccccc1)C(=O)N[C@H](CCCCN)C(N)=O [lipopeptide #3, p-kkkFk] (Palmitoyl-[dK][dK][dK]F[dK]-NH2) | 4
8 | CCCCCCCCCCCCCCCC(=O)N[C@H](CCCCN)C(=O)N[C@H](CCCCN)C(=O)N[C@@H](Cc1ccccc1)C(=O)N[C@H](CCCCN)C(=O)N[C@H](CCCCN)C(N)=O [lipopeptide #4, p-kkFkk] (Palmitoyl-[dK][dK]F[dK][dK]-NH2) | 6
9 | CCCCCCCCCCCCCCCC(=O)N[C@H](CCCCN)C(=O)N[C@@H](Cc1ccccc1)C(=O)N[C@H](CCCCN)C(=O)N[C@H](CCCCN)C(=O)N[C@H](CCCCN)C(N)=O [lipopeptide #5, p-kFkkk] (Palmitoyl-[dK]F[dK][dK][dK]-NH2) | 6
10 | CCCCCCCCCCCCCCCC(=O)N[C@H](CCCCN)C(=O)N[C@H](CCCCN)C(=O)N[C@H](CCCCN)C(=O)N[C@@H](Cc1ccccc1)C(=O)N[C@@H](Cc1ccccc1)C(N)=O [lipopeptide #7, p-kkkFF] (Palmitoyl-[dK][dK][dK]FF-NH2) | 14
11 | CCCCCCCCCCCCCCCC(=O)N[C@H](CCCCN)C(=O)N[C@H](CCCCN)C(=O)N[C@@H](Cc1ccccc1)C(=O)N[C@H](CCCCN)C(=O)N[C@@H](Cc1ccccc1)C(N)=O [lipopeptide #8, p-kkFkF] (Palmitoyl-[dK][dK]F[dK]F-NH2) | 6
12 | CCCCCCCCCCCCCCCC(=O)N[C@H](CCCCN)C(=O)N[C@@H](Cc1ccccc1)C(=O)N[C@H](CCCCN)C(=O)N[C@H](CCCCN)C(=O)N[C@@H](Cc1ccccc1)C(N)=O [lipopeptide #9, p-kFkkF] (Palmitoyl-[dK]F[dK][dK]F-NH2) | 5
13 | CCCCCCCCCCCCCCCC(=O)N[C@@H](Cc1ccccc1)C(=O)N[C@H](CCCCN)C(=O)N[C@H](CCCCN)C(=O)N[C@H](CCCCN)C(=O)N[C@@H](Cc1ccccc1)C(N)=O [lipopeptide #10, p-FkkkF] (Palmitoyl-F[dK][dK][dK]F-NH2) | 6
14 | CCCCCCCCCCCCCCCC(=O)N[C@H](CCCCN)C(=O)N[C@H](CCCCN)C(=O)N[C@@H](Cc1ccccc1)C(=O)N[C@@H](Cc1ccccc1)C(=O)N[C@H](CCCCN)C(N)=O [lipopeptide #11, p-kkFFk] (Palmitoyl-[dK][dK]FF[dK]-NH2) | 6
15 | CCCCCCCCCCCCCCCC(=O)N[C@H](CCCCN)C(=O)N[C@@H](Cc1ccccc1)C(=O)N[C@H](CCCCN)C(=O)N[C@@H](Cc1ccccc1)C(=O)N[C@H](CCCCN)C(N)=O [lipopeptide #12, p-kFkFk] (Palmitoyl-[dK]F[dK]F[dK]-NH2) | 12
16 | CCCCCCCCCCCCCCCC(=O)N[C@@H](Cc1ccccc1)C(=O)N[C@H](CCCCN)C(=O)N[C@H](CCCCN)C(=O)N[C@@H](Cc1ccccc1)C(=O)N[C@H](CCCCN)C(N)=O [lipopeptide #13, p-FkkFk] (Palmitoyl-F[dK][dK]F[dK]-NH2) | 6
17 | CCCCCCCCCCCCCCCC(=O)N[C@H](CCCCN)C(=O)N[C@@H](Cc1ccccc1)C(=O)N[C@@H](Cc1ccccc1)C(=O)N[C@H](CCCCN)C(=O)N[C@H](CCCCN)C(N)=O [lipopeptide #14, p-kFFkk] (Palmitoyl-[dK]FF[dK][dK]-NH2) | 8
18 | CCCCCCCCCCCCCCCC(=O)N[C@@H](Cc1ccccc1)C(=O)N[C@H](CCCCN)C(=O)N[C@@H](Cc1ccccc1)C(=O)N[C@H](CCCCN)C(=O)N[C@H](CCCCN)C(N)=O [lipopeptide #15, p-FkFkk] (Palmitoyl-F[dK]F[dK][dK]-NH2) | 10
19 | CCCCCCCCCCCCCCCC(=O)N[C@H](CCCCN)C(=O)N[C@H](CCCCN)C(=O)N[C@@H](Cc1ccccc1)C(=O)N[C@@H](Cc1ccccc1)C(=O)N[C@@H](Cc1ccccc1)C(N)=O [lipopeptide #17, p-kkFFF] (Palmitoyl-[dK][dK]FFF-NH2) | 50
20 | CCCCCCCCCCCCCCCC(=O)N[C@H](CCCCN)C(=O)N[C@@H](Cc1ccccc1)C(=O)N[C@H](CCCCN)C(=O)N[C@@H](Cc1ccccc1)C(=O)N[C@@H](Cc1ccccc1)C(N)=O [lipopeptide #18, p-kFkFF] (Palmitoyl-[dK]F[dK]FF-NH2) | 50
21 | CCCCCCCCCCCCCCCC(=O)N[C@H](CCCCN)C(=O)N[C@@H](Cc1ccccc1)C(=O)N[C@@H](Cc1ccccc1)C(=O)N[C@H](CCCCN)C(=O)N[C@@H](Cc1ccccc1)C(N)=O [lipopeptide #20, p-kFFkF] (Palmitoyl-[dK]FF[dK]F-NH2) | 100
22 | CCCCCCCCCCCCCCCC(=O)N[C@@H](Cc1ccccc1)C(=O)N[C@H](CCCCN)C(=O)N[C@@H](Cc1ccccc1)C(=O)N[C@H](CCCCN)C(=O)N[C@@H](Cc1ccccc1)C(N)=O [lipopeptide #21, p-FkFkF] (Palmitoyl-F[dK]F[dK]F-NH2) | 38
23 | CCCCCCCCCCCCCCCC(=O)N[C@H](CCCCN)C(=O)N[C@@H](Cc1ccccc1)C(=O)N[C@@H](Cc1ccccc1)C(=O)N[C@@H](Cc1ccccc1)C(=O)N[C@H](CCCCN)C(N)=O [lipopeptide #23, p-kFFFk] (Palmitoyl-[dK]FFF[dK]-NH2) | 100

Same assay, conditions: highest concentration tested 200 μg/ml

Row | Molecule | inhibitory activity in MIC assay (in words)
24 | p-FFFkk [lipopeptide #26] | not active
25 | p-FFkFk [lipopeptide #25] | no inhibitory activity
26 | p-FFkkF [lipopeptide #22] | no inhibitory activity
27 | p-FkFFk [lipopeptide #24] | no inhibitory activity
